The test system of assay [1] is platelet adhesion to fibrinogen. Particulars: Lu X et al (1994); cited from earlier work.
Assay [2] relates to binding of platelets to immobilized fibronectin. The following applies: Lu X et al (1994); cited from earlier work.
For assay [3], the system named is platelets. Put plainly: ADP-induced platelet aggregation (RGD function). In kind it is cell-based, human. Particulars: summary of FIG. 3D. Here is the method: (§1) Platelet aggregation: Platelet aggregation was measured by the increase in light transmission as described in Lu et al (1994) Biochem J 304: 929-936 and used to identify RGD function. Briefly, platelet rich plasma (PRP) was prepared from citrated human blood from healthy individuals by centrifugation at 200 g for 15 min. Platelets were prepared from PRP by centrifugation at 1200 g for 15 min. The pellets were washed and resuspended in adhesion/aggregation buffer (145 mM NaCl, 5 mM Kcl, 1 mM MgCl2, 2 mM CaCl2, 10 mM glucose, 3.5 mg/ml BSA and 10 mM HEPES, pH 7.35) and adjusted to a count of 3×10^8/ml. Platelet aggregation (320 μl incubations) was induced with 10 μM ADP in the presence of 1.67 mg/ml fibrinogen and measured using a Payton Dual-Aggregometer linked to a chart recorder.

In assay [4] the test system is washed platelets. Put plainly: Thrombin-induced platelet aggregation. In kind it is cell-based, human. The following applies: summary of FIG. 3D. On the procedure: as §1
Thrombin-induced platelet aggregation: Thrombin-induced platelet aggregation in washed platelets for both wild-type and mutant dendroaspins were determined as described in Example 3 above, except thrombin was used as an agonist.

Assay [5] has as its target thrombin (Homo sapiens, UniProt P00734). Put plainly: Thrombin-induced fibrinogen clotting time. It is filed as biochemical. The following applies: summary of FIG. 3D. Here is the method:
Thrombin-induced fibrinogen clotting time: Thrombin-induced fibrinogen clotting time was determined using an Amelung KC-10 instrument as follows. 50 μl of thrombin (3.3 μg/ml) in 50 mM Tris-HCL, pH7.5, containing 150 mM NaCl and 5 mM CaCl2 was mixed with 10 μl of various concentrations of both modified (Den-TM) and wild type dendroaspin (as a control for comparison). After a 2 min incubation at 37° C., 100 μl of fibrinogen (160 μg/ml) in the same buffer was added to determine the clotting time.
Amidolytic activity of thrombin and clotting of fibrinogen: The amidolytic activity of α-thrombin was performed using the chromogenic substrate S-2238 (Chromogenix) and α-thrombin at a final concentration of 0.06 unit/ml. Thrombin releases p-nitroaniline from the substrate and the rate of this reaction was monitored in microtiter plates at 405 nm using an automated spectrophotometer (Autoreader III, Ortho Diagnostic Systems). The inhibitory effect of Den-HR on thrombin cleavage of the chromogenic substrate was measured at final concentration between nM-mM. […] The time to observe the start of fibrinogen clotting (thrombin time) was measured using an automated coagulometer at 37° C. The effect of mutants on fibrinogen clotting by α-thrombin was determined by substituting the HEPES buffer in the first mixture with mutants at a range of concentrations.

As to kistrin, in assay [1], the “inhibition of platelet adhesion to fibrinogen” value is recorded as “potent inhibitors”. The “inhibition of binding of platelets to immobilized fibronectin” value in assay [2] is “poor antagonists”.

Regarding “SEQ ID NO:46: dendroaspin carrying the thrombomodulin-binding sequence of the B-chain of human thrombin; bifunctional molecule (RICFTPRGDMPGPYPGPCQEDSCYKNIWTFDNIIRRGPGPTWTANVGKGQPS)”, in assay [3], the “inhibition of ADP-induced platelet aggregation” value was “inhibits”. Further, in assay [4], the “inhibition of thrombin-induced platelet aggregation” value is reported as “inhibits”. In assay [5], the thrombin clotting time entry is reported as “delay”.

B1: SEQ ID NO:43: modified dendroaspin with hirudin domain grafted into loops I and II (protein)
chain: RICFTPRGDMPGPYPGPCQEDSCYKNIWTFDNIIRRGCGCFTPRGDMPGPYFPRPQSHNDGDFEEIPEEYLQ
For the molecule B1, the “inhibition of ADP-induced platelet aggregation” value in assay [3] is on record as “inhibits”. The “inhibition of thrombin-induced platelet aggregation” value in assay [4] is “inhibits”. Moreover, in assay [5], the thrombin clotting time result is reported as “delays”.
